Earlier results as cited in patent US12485093B2, “Composition for use as an antiviral in the form of nasal drops and in nebulisers” (DERMOPARTNERS, S.L., priority 2021, dated 2025).

System: SARS-CoV-2
Conditions: concentration of 5% m/v

## OC[C@@H](O)[C@H](O)[C@@H](O)CO [xylitol]
  viricidal and antiviral activity on SARS-CoV-2: viricidal and exhibit antiviral activity
